{"source": "paper PMC9249674", "about": "“A small-molecule Skp1 inhibitor elicits cell death by p53-dependent mechanism” (iScience, 2022)", "key": {"[1]": {"target": "T1, Skp1 (F101A) (Homo sapiens, UniProt P63208, F101A)", "T1 construct": "His6; made in house; host or cells: Escherichia coli BL21 (DE3)", "T1 sequence (P63208 whole entry F101A)": "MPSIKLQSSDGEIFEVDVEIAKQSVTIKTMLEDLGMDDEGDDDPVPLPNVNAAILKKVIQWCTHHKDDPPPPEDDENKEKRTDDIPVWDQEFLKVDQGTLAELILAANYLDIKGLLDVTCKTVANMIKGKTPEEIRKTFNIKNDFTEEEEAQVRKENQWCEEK", "test": "SPRi assay, Skp1 mutant", "assay_type": "binding", "method": "(§1) Freshly deposited gold coated standard SPRi chips/slides (Plexera, LLC) were cleaned, and compound(s) at 10 mM concentration in 100% DMSO were spotted on the chips using a micropipette. After this, the slides were left for complete evaporation of DMSO (under vacuum) at room temperature for 2 hrs. After printing, the slides were exposed to UV irradiation 2.4 J/cm^2 (365 nm) in a UV chamber (Amersham life science). The slides were subsequently washed with DMSO, ethanol, and finally with distilled water for 15 minutes (ultrasonically), respectively, to remove non-covalently bound compounds. After drying with nitrogen, the slides were assembled with flow cell and then mounted on SPRi instrument for measurement, or stored at 4°C to be used for later experiments.\n(§2) All the experiments were carried out using the PlexArray® HT system (Plexera, LLC), which is based on surface plasmon resonance imaging. Oval regions of interests (ROIs) were set as 9 pixels × 7 pixels area in imaging area. ROIs of vehicle (DMSO) were used as controls for measurement of specific signals. All samples were injected with an association and dissociation flow rate of 3 μL s^−1 and at 25°C. A 1:3 mixture of glycine. HCL (pH 4.2) and 0.5% (v/v) SDS, respectively, was used to regenerate the surface and remove bound proteins from the small molecules enabling the sensor chip to be reused for additional analyte injections.\n(§3) The Tris buffer (10 mM Tris-HCl pH 8.0, 100 mM NaCl), without any reducing agent, was used as both analyte and running buffer. Purified recombinant proteins, including Skp1^WT, ΔSkp1^1−140, and any of the desired mutant(s), were in the Tris buffer (10 mM Tris-HCl pH 8.0, 100 mM NaCl). For testing the compound(s), multiple concentrations (0.5 μM, 1 μM, 4 μM and 8 μM) of Skp1^WT or ΔSkp1^1−140 were flowed on the SPRi instrument as analyte to get accurate kinetic parameters. A typical sample injection cycle consists of 300 seconds association phase with the analyte solution and 400 seconds dissociation phase with running buffer at 3 μL s^−1 flow rate. Other purified proteins such as mutant forms of Skp1 were tested to confirm binding pocket specificity. The highest concentration tested for each protein was 8 μM. For data analysis, we choose two software packages, ORIGIN Lab and Data Analysis Module (DAM) of Plexera. All data from SPRi reported here are after subtraction of the background intensity/signal by DAM software. In short, the entire concentration of analyte was fitted with a 1:1 Langmuir interaction integrated rate equation to obtain the kinetic constants."}, "[2]": {"target": "T2, Skp1 (F101A_F139A) (Homo sapiens, UniProt P63208, F101A/F139A)", "T2 construct": "His6; made in house; host or cells: Escherichia coli BL21 (DE3)", "T2 sequence (P63208 whole entry F101A/F139A)": "as the sequence (P63208 whole entry F101A) above, with F139A counted along it", "test": "SPRi assay, Skp1 mutant", "assay_type": "binding", "method": "as §1, §2, §3"}, "[3]": {"target": "T3, Skp1 (F101W_V123T) (Homo sapiens, UniProt P63208, F101W/V123T)", "T3 construct": "His6; made in house; host or cells: Escherichia coli BL21 (DE3)", "T3 sequence (P63208 whole entry F101W/V123T)": "as the sequence (P63208 whole entry F101A) above, with A101W, V123T counted along it", "test": "SPRi assay, Skp1 mutant", "assay_type": "binding", "method": "as §1, §2, §3"}, "[4]": {"target": "T4, Skp1 (F139D) (Homo sapiens, UniProt P63208, F139D)", "T4 construct": "His6; made in house; host or cells: Escherichia coli BL21 (DE3)", "T4 sequence (P63208 whole entry F139D)": "as the sequence (P63208 whole entry F101A) above, with A101F, F139D counted along it", "test": "SPRi assay, Skp1 mutant", "assay_type": "binding", "method": "as §1, §2, §3"}, "[5]": {"target": "T5, Skp1 (Q97A) (Homo sapiens, UniProt P63208, Q97A)", "T5 construct": "His6; made in house; host or cells: Escherichia coli BL21 (DE3)", "T5 sequence (P63208 whole entry Q97A)": "as the sequence (P63208 whole entry F101A) above, with Q97A, A101F counted along it", "test": "SPRi assay, Skp1 mutant", "assay_type": "binding", "method": "as §1, §2, §3"}, "[6]": {"target": "T6, Skp1 (V123D) (Homo sapiens, UniProt P63208, V123D)", "T6 construct": "His6; made in house; host or cells: Escherichia coli BL21 (DE3)", "T6 sequence (P63208 whole entry V123D)": "as the sequence (P63208 whole entry F101A) above, with A101F, V123D counted along it", "test": "SPRi assay, Skp1 mutant", "assay_type": "binding", "method": "as §1, §2, §3"}, "[7]": {"target": "T7, Skp1^F139A (Homo sapiens, UniProt P63208, F139A)", "T7 construct": "His6; made in house; host or cells: Escherichia coli BL21 (DE3)", "T7 sequence (P63208 whole entry F139A)": "as the sequence (P63208 whole entry F101A) above, with A101F, F139A counted along it", "test": "SPRi assay, Skp1 mutant", "assay_type": "binding", "method": "as §1, §2, §3"}, "[8]": {"system": "A549 cells", "test": "Cell viability assay (Cell-Titer GLO)", "assay_type": "cell-based, human", "conditions": "for EC50: Homo sapiens", "method": "(§4) The media was according to culture conditions of each individual cell line (mentioned above). After 12 hrs, compounds were added in a total volume of 5 μL of media (two-fold diluted) to each well with final concentrations from 5 nM to 30 μM. The measurements were conducted 48 hrs after seeding of the cells. Then, 25 μL of Cell-Titer GLO reagent (Promega) was added, and luminescence was measured on an EnSpire multimode plate reader (PerkinElmer), according to the manufacturer’s instructions. The estimated in vitro half-maximal inhibitory concentration (EC50) values were calculated using GraphPad Prism® v6.0 (San Diego, CA) software. The cell viability for A549 cells was also performed for 72- and 96-hrs by using the same experimental conditions as described above."}, "[9]": {"system": "LLC", "test": "Cell viability assay (Cell-Titer GLO)", "assay_type": "cell-based", "conditions": "Lewis lung carcinoma; LLC^a; Lung cancer; 48 hrs; read-out: Anti-proliferative EC50", "method": "as §4, with “For cell viability, cells were seeded in 384 opaque-walled plates with clear bottoms at 300–500 cells per well (optimum density for growth) in a total volume of 20 μL of media. The media” for “The media”"}, "[10]": {"system": "NCI-N87", "test": "Cell viability assay (Cell-Titer GLO)", "assay_type": "cell-based", "conditions": "Homo sapiens; NCI-N87^c; Gastric cancer; p53 null or mutant cancer cell lines; 48 hrs; read-out: Anti-proliferative EC50", "method": "as §4, with “For cell viability, cells were seeded in 384 opaque-walled plates with clear bottoms at 300–500 cells per well (optimum density for growth) in a total volume of 20 μL of media. The media” for “The media”"}, "[11]": {"system": "panel of cell lines derived from hematologic and solid tumors", "test": "Cell viability, panel of cell lines", "assay_type": "cell-based", "conditions": "all the lines tested with complete cell killing; read-out: EC50 values across the panel", "method": "as §4, with “For cell viability, cells were seeded in 384 opaque-walled plates with clear bottoms at 300–500 cells per well (optimum density for growth) in a total volume of 20 μL of media. The media” for “The media”"}, "[12]": {"system": "H358 (p53 null) cells", "test": "Flow cytometric analysis of apoptosis (annexin V/PI)", "assay_type": "cell-based", "conditions": "10 μM dose"}, "[13]": {"system": "A549 cells", "test": "Caspase-Glo 3/7 activity", "assay_type": "cell-based, human", "conditions": "dose- and time-dependent treatment", "method": "The activities of caspase-3/7, −8 and −9 were measured using Caspase-Glo® 3/7,8, and 9 assay kits (Promega, Madison, WI, USA) according to the manufacturer’s protocol. Briefly, the cells were plated over-night in a white 384 well microplate, and then treated as indicated with Z0933M. After treatment, 25 μL of each caspase substrate was added and incubated at room temperature for 30 min. Upon activation of caspase in the apoptotic cells, the substrate will give a luminescence signal after cleavage of the aminoluciferin-labelled synthetic tetrapeptide. Luminescent signals were detected using an EnSpire multimode plate reader (PerkinElmer). For inhibitor interventions and Skp1 overexpression, the experiments were performed in 96 well format."}}, "note": "Where two headings read alike, the source gives them in different places.", "data": [{"smiles": "Nc1ccc(-c2nc3ccccc3c3[nH]c4ccccc4c23)cc1", "note": "[Z0933M]", "values": [{"measurement": "Kd", "setting": "[1]", "value": "374 ± 45.6", "unit": "nM"}, {"measurement": "Kd", "setting": "[2]", "value": "799 ± 54.8", "unit": "nM"}, {"measurement": "Kd", "setting": "[3]", "value": "336 ± 36.8", "unit": "nM"}, {"measurement": "Kd", "setting": "[4]", "value": "1140 ± 95.5", "unit": "nM"}, {"measurement": "Kd", "setting": "[5]", "value": "477 ± 4.95", "unit": "nM"}, {"measurement": "Kd", "setting": "[6]", "value": "1270 ± 95.5", "unit": "nM"}, {"measurement": "Kd", "setting": "[7]", "value": "455 ± 47.7", "unit": "nM"}, {"measurement": "anti-proliferative potency relative to 6-OAP", "setting": "[8]; A549 cells, 48 h, ratio of EC50 values", "value": "approximately 24 times"}, {"measurement": "EC50", "setting": "[8]; A549, Lung cancer, 48 h, read-out: Anti-proliferative EC50", "value": "580 ± 70", "unit": "nM"}, {"measurement": "EC50", "setting": "[8]; A549 cells, 72 hrs, read-out: EC50", "value": "99 ± 1", "unit": "nM"}, {"measurement": "EC50", "setting": "[8]; A549 cells, 96 hrs, read-out: EC50", "value": "66 ± 18", "unit": "nM"}, {"measurement": "EC50", "setting": "[9]", "value": "1850 ± 350", "unit": "nM"}, {"measurement": "EC50", "setting": "[10]", "value": "> 30", "unit": "µM"}, {"measurement": "EC50", "setting": "[11]", "value": "250 to 4000", "unit": "nM"}, {"measurement": "induction of apoptosis", "setting": "[12]", "value": "could not induce apoptosis"}, {"measurement": "caspase 3/7 activity", "setting": "[13]", "value": "dose- and time-dependently induced caspase 3/7 activity"}]}]}
